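Test compounds were applied to cells in 96-well plates for 48 hours at 5 doses. GI50 is the concentration that inhibits growth by half.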 The source made the active and inactive calls. Rule as the data show it: active = GI50 up to about 1.1 µM and inactive = higher. Starred links: 1 amine or outer side, 2 acyl side, 3 side chain; linkers in the order of their positions; H or OH if unused. Positions of bridges follow the written chain, without caps; N, C: chain ends. Non-standard residues stand in square brackets, D forms with d. Residues, ends and D or L forms follow the SMILES beside them. ξ: configuration not given here. *: point of attachment. γ4hArg(2R,3R-(OH)2) = N=C(N)NCCC[C@H](N[*:1])[C@@H](O)[C@@H](O)C(=O)[*:2]; Gln(3S,4R-Me2) = C[C@H]([C@H](N)C(=O)O)[C@@H](C)C(N)=O; X50 = CC(C)C[C@H](C)[C@@H](O)[C@@H](C)C(=O)*; X51 = COC(c1ccc(O)cc1)C(N[*:1])C(=O)[*:2]; NMeQ = CN[C@@H](CCC(N)=O)C(=O)O; Thr(3ξ) = CC(O)[C@H](N)C(=O)O; NMeA = CN[C@@H](C)C(=O)O
Tests used:
Assay in all cases: NCI anticancer screen, dose series, 48 h
DU-145 = system: DU-145
EKVX = system: EKVX
HCC 2998 = system: HCC 2998
HCT-116 = system: HCT-116
HCT-15 = system: HCT-15
HT-29 = system: HT-29
K562 = system: K562
MDA-MB-435 = system: MDA-MB-435
Malme-3M = system: Malme-3M
NCI-H226 = system: NCI-H226
NCI-H23 = system: NCI-H23
NCI-H522 = system: NCI-H522
NCI/ADR-RES = system: NCI/ADR-RES
OVCAR-3 = system: OVCAR-3
PC-3 = system: PC-3
SF-268 = system: SF-268
SK-MEL-28 = system: SK-MEL-28
SK-MEL-2 = system: SK-MEL-2
SK-MEL-5 = system: SK-MEL-5
SW-620 = system: SW-620

Row | Compound | GI50 (DU-145) | GI50 (EKVX) | GI50 (HCC 2998) | GI50 (HCT-116) | GI50 (HCT-15) [µM] | GI50 (HT-29) | GI50 (K562) | GI50 (MDA-MB-435) | GI50 (Malme-3M) | GI50 (NCI-H226) | GI50 (NCI-H23) | GI50 (NCI-H522) | GI50 (NCI/ADR-RES) | GI50 (OVCAR-3) | GI50 (PC-3) | GI50 (SF-268) | GI50 (SK-MEL-28) | GI50 (SK-MEL-2) | GI50 (SK-MEL-5) | GI50 (SW-620)
1 | COc1ccc(/C(CC2OC(=O)c3ccccc32)=N\NC(N)=O)cc1 (stereo not given) | > 100 µM (inactive) | > 100 µM (inactive) | > 100 µM (inactive) | > 100 µM (inactive) | > 100 | > 100 µM (inactive) | > 100 µM (inactive) | > 100 µM (inactive) | > 100 µM (inactive) | > 100 µM (inactive) | > 100 µM (inactive) | > 100 µM (inactive) | > 100 µM (inactive) | > 100 µM (inactive) | > 100 µM (inactive) | > 100 µM (inactive) | > 100 µM (inactive) | > 100 µM (inactive) | > 100 µM (inactive) | > 100 µM (inactive)
2 | CCOP(=O)(Nc1ccc2oc(=O)c3ccccc3c2c1)OCC | 92.7 µM (inactive) | 46 µM (inactive) | 88.5 µM (inactive) | 66.2 µM (inactive) | 79.8 | 63.2 µM (inactive) | 38.1 µM (inactive) | > 100 µM (inactive) | > 100 µM (inactive) | 41 µM (inactive) | > 100 µM (inactive) | 68.9 µM (inactive) | 71.1 µM (inactive) | 45.2 µM (inactive) | 27.8 µM (inactive) | 56.6 µM (inactive) | > 100 µM (inactive) | 62.5 µM (inactive) | 28.6 µM (inactive) | > 100 µM (inactive)
3 | O=[N+]([O-])c1cc(Cl)ccc1S(=O)(=O)c1ccccc1 | > 100 µM (inactive) | > 100 µM (inactive) | > 100 µM (inactive) | 35.5 µM (inactive) | 27.6 | 74.6 µM (inactive) | 65.6 µM (inactive) | > 100 µM (inactive) | 52.8 µM (inactive) | 67.6 µM (inactive) | 54.1 µM (inactive) | 57.4 µM (inactive) | > 100 µM (inactive) | > 100 µM (inactive) | > 100 µM (inactive) | 83.6 µM (inactive) | > 100 µM (inactive) | 17.3 µM (inactive) | 49.2 µM (inactive) | > 100 µM (inactive)
4 | CC1=[N+](C)CCN1C | > 100 µM (inactive) | > 100 µM (inactive) | > 100 µM (inactive) | > 100 µM (inactive) | > 100 | > 100 µM (inactive) | > 100 µM (inactive) | > 100 µM (inactive) | > 100 µM (inactive) | > 100 µM (inactive) | > 100 µM (inactive) | > 100 µM (inactive) | > 100 µM (inactive) | > 100 µM (inactive) | > 100 µM (inactive) | > 100 µM (inactive) | > 100 µM (inactive) | > 100 µM (inactive) | > 100 µM (inactive) | > 100 µM (inactive)
5 | COc1cc(C2c3cc4c(cc3OC(Nc3ccc(C(=O)O)cc3)C2C)OCO4)cc(OC)c1OC (stereo not given) | 0.378 µM (active) | 0.745 µM (active) | 0.295 µM (active) | 0.31 µM (active) | 0.294 | 0.329 µM (active) | 0.3 µM (active) | 0.0317 µM (active) | 0.0655 µM (active) | 2.31 µM (inactive) | 0.454 µM (active) | 0.376 µM (active) | 0.29 µM (active) | 0.285 µM (active) | 0.253 µM (active) | 0.504 µM (active) | 11.1 µM (inactive) | 0.579 µM (active) | 0.0735 µM (active) | 0.35 µM (active)
6 | COc1ccc(C(Nc2ccccn2)c2cc(C(C)(C)C)cc(C(C)(C)C)c2O)cc1 (stereo not given) | 7.76 µM (inactive) | 36 µM (inactive) | 12.3 µM (inactive) | 12.6 µM (inactive) | 22.3 | 22 µM (inactive) | 55 µM (inactive) | 17.4 µM (inactive) | 10.4 µM (inactive) | 21.3 µM (inactive) | 17.1 µM (inactive) | 4.05 µM (inactive) | 16 µM (inactive) | 11.4 µM (inactive) | 21.8 µM (inactive) | 5.65 µM (inactive) | 50.4 µM (inactive) | 18.1 µM (inactive) | 16.3 µM (inactive) | 19.2 µM (inactive)
7 | CN/N=C(/C=C/c1ccccc1)C(C)C | > 100 µM (inactive) | > 100 µM (inactive) | > 100 µM (inactive) | > 100 µM (inactive) | > 100 | > 100 µM (inactive) | > 100 µM (inactive) | > 100 µM (inactive) | > 100 µM (inactive) | > 100 µM (inactive) | > 100 µM (inactive) | 73.3 µM (inactive) | > 100 µM (inactive) | > 100 µM (inactive) | > 100 µM (inactive) | > 100 µM (inactive) | > 100 µM (inactive) | > 100 µM (inactive) | > 100 µM (inactive) | > 100 µM (inactive)
8 | COC(c1ccc(O)cc1)C1NC(=O)[C@H](CCC(N)=O)N(C)C(=O)[C@H](CC(C)C)NC(=O)[C@@H](CCCN=C(N)N)NC(=O)[C@H](C(C)O)NC(=O)[C@@H](NC(=O)[C@@H](NC(=O)[C@H](O)[C@H](O)[C@H](CCCN=C(N)N)NC(=O)[C@H](C)NC(=O)[C@H](C)[C@H](O)[C@@H](C)CC(C)C)[C@@H](C)[C@@H](C)C(N)=O)[C@@H](C)OC(=O)[C@H](C)N(C)C1=O (stereo partly drawn) (X50-A[γ4hArg(2R,3R-(OH)2)][Gln(3S,4R-Me2)]T[Thr(3ξ)][dR]L[NMeQ][X51][NMeA]; ester 4-C) | 0.0764 µM (active) | 0.0995 µM (active) | 0.0877 µM (active) | 0.281 µM (active) | 0.133 | 0.0904 µM (active) | 0.0847 µM (active) | 0.145 µM (active) | 0.084 µM (active) | 0.212 µM (active) | 0.0944 µM (active) | 0.0598 µM (active) | 0.222 µM (active) | 0.083 µM (active) | 0.187 µM (active) | 0.0525 µM (active) | 0.223 µM (active) | 0.247 µM (active) | 0.0682 µM (active) | 0.137 µM (active)
9 | NS(=O)(=O)c1ccc(NC(=S)NC(=O)Nc2ccc(Cl)c(Cl)c2)cc1 | 15.5 µM (inactive) | 23.7 µM (inactive) | 14.6 µM (inactive) | 13.4 µM (inactive) | 11.4 | 11.5 µM (inactive) | 4.55 µM (inactive) | 14.4 µM (inactive) | 15.2 µM (inactive) | 20.4 µM (inactive) | 16 µM (inactive) | 16 µM (inactive) | 16 µM (inactive) | 18.5 µM (inactive) | 12.9 µM (inactive) | 12.8 µM (inactive) | 17.8 µM (inactive) | 15 µM (inactive) | 16.1 µM (inactive) | 16.5 µM (inactive)
10 | CC(C)CC(=O)OC[n+]1cccc(-c2c(COC(=O)NC(C)C)c(COC(=O)NC(C)C)c3n2CCC3)c1 | 24.7 µM (inactive) | > 100 µM (inactive) | > 100 µM (inactive) | 44 µM (inactive) | 66.8 | 52.6 µM (inactive) | 51.9 µM (inactive) | > 100 µM (inactive) | 83.6 µM (inactive) | > 100 µM (inactive) | 31.1 µM (inactive) | 23.7 µM (inactive) | 35.2 µM (inactive) | > 100 µM (inactive) | 48.1 µM (inactive) | 29 µM (inactive) | > 100 µM (inactive) | 34 µM (inactive) | 58.5 µM (inactive) | 51.1 µM (inactive)
